In ChEMBL document CHEMBL1275577, “Study of the in vitro activities of rifaximin and comparator agents against 536 anaerobic intestinal bacteria from the perspective of potential utility in pathology involving bowel flora” (Antimicrob Agents Chemother, 2009):
In brackets after ≈: the same amount, converted by molar mass.

What was measured:
Eubacterium cylindroides = assay: Antimicrobial activity against Eubacterium cylindroides by Wadsworth agar dilution method; format: functional; details: Faecalitalea cylindroides
[Clostridium] innocuum = Antimicrobial activity against Clostridium innocuum by Wadsworth agar dilution method; format: functional
Bifidobacterium longum = assay: Antimicrobial activity against Bifidobacterium longum by Wadsworth agar dilution method; format: functional
Lactobacillus jensenii = assay: Antimicrobial activity against Lactobacillus jensenii by Wadsworth agar dilution method; format: functional
Parabacteroides merdae = assay: Antimicrobial activity against Parabacteroides merdae by Wadsworth agar dilution method; format: functional
[1] = test system: Prevotella melaninogenica; assay: Antimicrobial activity against Prevotella melaninogenica by Wadsworth agar dilution method; format: functional
Fusobacterium mortiferum [2] = assay: Antimicrobial activity against Clostridium rectum by Wadsworth agar dilution method; format: functional
[3] = test system: Clostridium paraputrificum; assay: Antimicrobial activity against Clostridium paraputrificum by Wadsworth agar dilution method; format: functional
Ruminococcus torques = assay: Antimicrobial activity against Ruminococcus torques by Wadsworth agar dilution method; format: functional; details: Mediterraneibacter torques
Prevotella disiens = assay: Antimicrobial activity against Prevotella disiens by Wadsworth agar dilution method; format: functional
Clostridium nexile = assay: Antimicrobial activity against Clostridium nexile by Wadsworth agar dilution method; format: functional; details: Faecalimonas nexilis
Clostridium glycolicum = assay: Antimicrobial activity against Clostridium glycolicum by Wadsworth agar dilution method; format: functional; details: Terrisporobacter glycolicus
Thomasclavelia ramosa = assay: Antimicrobial activity against Clostridium ramosum by Wadsworth agar dilution method; format: functional
Holdemania filiformis = assay: Antimicrobial activity against Holdemania filiformis by Wadsworth agar dilution method; format: functional
Flavonifractor plautii = assay: Antimicrobial activity against Clostridium orbiscindens by Wadsworth agar dilution method; format: functional
[4] = test system: Limosilactobacillus reuteri; assay: Antimicrobial activity against Lactobacillus reuteri by Wadsworth agar dilution method; format: functional
[5] = Antimicrobial activity against Bifidobacterium infantis by Wadsworth agar dilution method; format: functional, Bifidobacterium longum subsp. infantis; details: Bifidobacterium longum
Anaerococcus tetradius = assay: Antimicrobial activity against Anaerococcus tetradius by Wadsworth agar dilution method; format: functional
[6] = test system: Propionibacterium propionicum; assay: Antimicrobial activity against Propionibacterium propionicum by Wadsworth agar dilution method; format: functional; details: Arachnia propionica
Eubacterium biforme = assay: Antimicrobial activity against Eubacterium biforme by Wadsworth agar dilution method; format: functional; details: Holdemanella biformis
Clostridium hathewayi = assay: Antimicrobial activity against Clostridium hathewayi by Wadsworth agar dilution method; format: functional; details: Hungatella hathewayi
[7] = Antimicrobial activity against Bifidobacterium pseudocatenulatum by Wadsworth agar dilution method; format: functional
[8] = test system: Peptostreptococcus anaerobius; assay: Antimicrobial activity against Peptostreptococcus anaerobius by Wadsworth agar dilution method; format: functional
Cutibacterium acnes = assay: Antimicrobial activity against Propionibacterium acnes by Wadsworth agar dilution method; format: functional
Prevotella bivia = assay: Antimicrobial activity against Prevotella bivia by Wadsworth agar dilution method; format: functional
Porphyromonas somerae = assay: Antimicrobial activity against Porphyromonas somerae by Wadsworth agar dilution method; format: functional
Peptoniphilus harei = assay: Antimicrobial activity against Peptoniphilus harei by Wadsworth agar dilution method; format: functional
Desulfovibrio sp. = assay: Antimicrobial activity against Desulfovibrio sp. by Wadsworth agar dilution method; format: functional
[9] = test system: Clostridium aminobutyricum; assay: Antimicrobial activity against Clostridium aminobutyricum by Wadsworth agar dilution method; format: functional
[10] = test system: Paeniclostridium sordellii; assay: Antimicrobial activity against Clostridium sordellii by Wadsworth agar dilution method; format: functional; details: Paraclostridium sordellii
Prevotella intermedia = assay: Antimicrobial activity against Prevotella intermedia by Wadsworth agar dilution method; format: functional
Parvimonas micra = assay: Antimicrobial activity against Peptostreptococcus micros by Wadsworth agar dilution method; format: functional
Clostridioides difficile = assay: Antimicrobial activity against Clostridium difficile by Wadsworth agar dilution method; format: functional
Eubacterium rectale = assay: Antimicrobial activity against Eubacterium rectale by Wadsworth agar dilution method; format: functional; details: Agathobacter rectalis
Bacteroides caccae = assay: Antimicrobial activity against Bacteroides caccae by Wadsworth agar dilution method; format: functional
Clostridium bartlettii = assay: Antimicrobial activity against Clostridium bartlettii by Wadsworth agar dilution method; format: functional; details: Intestinibacter bartlettii
[11] = test system: Lactiplantibacillus plantarum; assay: Antimicrobial activity against Lactobacillus plantarum by Wadsworth agar dilution method; format: functional
Clostridium septicum = assay: Antimicrobial activity against Clostridium septicum by Wadsworth agar dilution method; format: functional
Blautia producta = assay: Antimicrobial activity against Ruminococcus productus by Wadsworth agar dilution method; format: functional
Collinsella aerofaciens = assay: Antimicrobial activity against Colinsella aerofaciens by Wadsworth agar dilution method; format: functional
Fusobacterium mortiferum [12] = assay: Antimicrobial activity against Fusobacterium mortiferum by Wadsworth agar dilution method in presence of beta-lactamase inhibitor Sulbactam; format: functional
[13] = test system: Ruminococcus flavefaciens; assay: Antimicrobial activity against Ruminococcus flavefaciens by Wadsworth agar dilution method; format: functional
[14] = test system: Lacticaseibacillus rhamnosus; assay: Antimicrobial activity against Lactobacillus rhamnosus by Wadsworth agar dilution method; format: functional
Clostridium perfringens = assay: Antimicrobial activity against Clostridium perfringens by Wadsworth agar dilution method; format: functional
[15] = test system: Paraclostridium bifermentans; assay: Antimicrobial activity against Clostridium bifermentans by Wadsworth agar dilution method; format: functional
Lactobacillus sp. = assay: Antimicrobial activity against Lactobacillus sp. by Wadsworth agar dilution method; format: functional
Ruminococcus obeum = assay: Antimicrobial activity against Ruminococcus obeum by Wadsworth agar dilution method; format: functional; details: Blautia obeum

CO[C@H]1/C=C/O[C@@]2(C)Oc3c(C)c(O)c4c(O)c(c5c(nc6cc(C)ccn65)c4c3C2=O)NC(=O)/C(C)=C\C=C\[C@H](C)[C@H](O)[C@@H](C)[C@@H](O)[C@@H](C)[C@H](OC(C)=O)[C@@H]1C [RIFAXIMIN]
MIC50 (Eubacterium cylindroides): 0.5 µg/mL (≈ 0.636 µM)
MIC90 (Eubacterium cylindroides): > 1020 µg/mL
MIC50 ([Clostridium] innocuum): > 1020 µg/mL
MIC90 ([Clostridium] innocuum): > 1020 µg/mL
MIC50 (Bifidobacterium longum): 0.5 µg/mL (≈ 0.636 µM)
MIC90 (Bifidobacterium longum): > 1020 µg/mL
MIC50 (Lactobacillus jensenii): 0.5 µg/mL (≈ 0.636 µM)
MIC90 (Lactobacillus jensenii): > 1020 µg/mL
MIC (Parabacteroides merdae): 0.25 µg/mL (≈ 0.318 µM)
MIC50 (Parabacteroides merdae): 0.25 µg/mL (≈ 0.318 µM)
MIC90 (Parabacteroides merdae): 1 µg/mL (≈ 1.27 µM)
MIC [1]: 0.25 µg/mL (≈ 0.318 µM)
MIC50 [1]: 0.25 µg/mL (≈ 0.318 µM)
MIC90 [1]: 0.5 µg/mL (≈ 0.636 µM)
MIC (Fusobacterium mortiferum [2]): 0.25 µg/mL (≈ 0.318 µM)
MIC50 (Fusobacterium mortiferum [2]): 0.25 µg/mL (≈ 0.318 µM)
MIC90 (Fusobacterium mortiferum [2]): > 1020 µg/mL
MIC [3]: 0.25 µg/mL (≈ 0.318 µM)
MIC50 [3]: 0.25 µg/mL (≈ 0.318 µM)
MIC90 [3]: > 1020 µg/mL
MIC (Ruminococcus torques): 0.25 µg/mL (≈ 0.318 µM)
MIC50 (Ruminococcus torques): 0.25 µg/mL (≈ 0.318 µM)
MIC90 (Ruminococcus torques): 4 µg/mL (≈ 5.09 µM)
MIC (Prevotella disiens): 0.25 µg/mL (≈ 0.318 µM)
MIC50 (Prevotella disiens): 0.25 µg/mL (≈ 0.318 µM)
MIC90 (Prevotella disiens): 0.5 µg/mL (≈ 0.636 µM)
MIC (Clostridium nexile): 0.25 µg/mL (≈ 0.318 µM)
MIC50 (Clostridium nexile): 0.25 µg/mL (≈ 0.318 µM)
MIC90 (Clostridium nexile): > 1020 µg/mL
MIC (Clostridium glycolicum): 0.25 µg/mL (≈ 0.318 µM)
MIC50 (Clostridium glycolicum): 0.25 µg/mL (≈ 0.318 µM)
MIC90 (Clostridium glycolicum): > 1020 µg/mL
MIC (Thomasclavelia ramosa): 0.25 µg/mL (≈ 0.318 µM)
MIC50 (Thomasclavelia ramosa): 0.25 µg/mL (≈ 0.318 µM)
MIC90 (Thomasclavelia ramosa): > 1020 µg/mL
MIC50 (Holdemania filiformis): 0.5 µg/mL (≈ 0.636 µM)
MIC90 (Holdemania filiformis): > 1020 µg/mL
MIC50 (Flavonifractor plautii): > 1020 µg/mL
MIC90 (Flavonifractor plautii): > 1020 µg/mL
MIC50 [4]: 0.5 µg/mL (≈ 0.636 µM)
MIC90 [4]: > 1020 µg/mL
MIC50 [5]: 0.5 µg/mL (≈ 0.636 µM)
MIC90 [5]: > 1020 µg/mL
MIC (Anaerococcus tetradius): 0.25 µg/mL (≈ 0.318 µM)
MIC50 (Anaerococcus tetradius): 0.25 µg/mL (≈ 0.318 µM)
MIC90 (Anaerococcus tetradius): 4 µg/mL (≈ 5.09 µM)
MIC50 [6]: 0.5 µg/mL (≈ 0.636 µM)
MIC90 [6]: > 1020 µg/mL
MIC50 (Eubacterium biforme): 0.5 µg/mL (≈ 0.636 µM)
MIC90 (Eubacterium biforme): > 1020 µg/mL
MIC50 (Clostridium hathewayi): 0.25 µg/mL (≈ 0.318 µM)
MIC90 (Clostridium hathewayi): 0.25 µg/mL (≈ 0.318 µM)
MIC50 [7]: 0.5 µg/mL (≈ 0.636 µM)
MIC90 [7]: > 1020 µg/mL
MIC [8]: 0.25 µg/mL (≈ 0.318 µM)
MIC50 [8]: 0.25 µg/mL (≈ 0.318 µM)
MIC90 [8]: 4 µg/mL (≈ 5.09 µM)
MIC50 (Cutibacterium acnes): 0.5 µg/mL (≈ 0.636 µM)
MIC90 (Cutibacterium acnes): > 1020 µg/mL
MIC (Prevotella bivia): 0.25 µg/mL (≈ 0.318 µM)
MIC50 (Prevotella bivia): 0.25 µg/mL (≈ 0.318 µM)
MIC90 (Prevotella bivia): 0.5 µg/mL (≈ 0.636 µM)
MIC (Porphyromonas somerae): 0.25 µg/mL (≈ 0.318 µM)
MIC50 (Porphyromonas somerae): 0.25 µg/mL (≈ 0.318 µM)
MIC90 (Porphyromonas somerae): 0.5 µg/mL (≈ 0.636 µM)
MIC (Peptoniphilus harei): 0.25 µg/mL (≈ 0.318 µM)
MIC50 (Peptoniphilus harei): 0.25 µg/mL (≈ 0.318 µM)
MIC90 (Peptoniphilus harei): 4 µg/mL (≈ 5.09 µM)
MIC50 (Desulfovibrio sp.): 16 µg/mL (≈ 20.4 µM)
MIC90 (Desulfovibrio sp.): 332 µg/mL (≈ 422 µM)
MIC [9]: 0.25 µg/mL (≈ 0.318 µM)
MIC50 [9]: 0.25 µg/mL (≈ 0.318 µM)
MIC90 [9]: > 1020 µg/mL
MIC [10]: 0.25 µg/mL (≈ 0.318 µM)
MIC50 [10]: 0.25 µg/mL (≈ 0.318 µM)
MIC90 [10]: > 1020 µg/mL
MIC (Prevotella intermedia): 0.25 µg/mL (≈ 0.318 µM)
MIC50 (Prevotella intermedia): 0.25 µg/mL (≈ 0.318 µM)
MIC90 (Prevotella intermedia): 0.5 µg/mL (≈ 0.636 µM)
MIC (Parvimonas micra): 0.25 µg/mL (≈ 0.318 µM)
MIC50 (Parvimonas micra): 0.25 µg/mL (≈ 0.318 µM)
MIC90 (Parvimonas micra): 4 µg/mL (≈ 5.09 µM)
MIC50 (Clostridioides difficile): 0.25 µg/mL (≈ 0.318 µM)
MIC90 (Clostridioides difficile): 0.25 µg/mL (≈ 0.318 µM)
MIC50 (Eubacterium rectale): 0.5 µg/mL (≈ 0.636 µM)
MIC90 (Eubacterium rectale): > 1020 µg/mL
MIC (Bacteroides caccae): 0.25 µg/mL (≈ 0.318 µM)
MIC50 (Bacteroides caccae): 0.25 µg/mL (≈ 0.318 µM)
MIC90 (Bacteroides caccae): > 0.5 µg/mL
MIC (Clostridium bartlettii): 0.25 µg/mL (≈ 0.318 µM)
MIC50 (Clostridium bartlettii): 0.25 µg/mL (≈ 0.318 µM)
MIC90 (Clostridium bartlettii): > 1020 µg/mL
MIC50 [11]: 0.5 µg/mL (≈ 0.636 µM)
MIC90 [11]: > 1020 µg/mL
MIC (Clostridium septicum): 0.25 µg/mL (≈ 0.318 µM)
MIC50 (Clostridium septicum): 0.25 µg/mL (≈ 0.318 µM)
MIC90 (Clostridium septicum): > 1020 µg/mL
MIC (Blautia producta): 0.25 µg/mL (≈ 0.318 µM)
MIC50 (Blautia producta): 0.25 µg/mL (≈ 0.318 µM)
MIC90 (Blautia producta): 4 µg/mL (≈ 5.09 µM)
MIC50 (Collinsella aerofaciens): 0.5 µg/mL (≈ 0.636 µM)
MIC90 (Collinsella aerofaciens): > 1020 µg/mL
MIC50 (Fusobacterium mortiferum [12]): 16 µg/mL
MIC90 (Fusobacterium mortiferum [12]): > 1020 µg/mL
MIC [13]: 0.25 µg/mL (≈ 0.318 µM)
MIC50 [13]: 0.25 µg/mL (≈ 0.318 µM)
MIC90 [13]: 4 µg/mL (≈ 5.09 µM)
MIC50 [14]: 0.5 µg/mL (≈ 0.636 µM)
MIC90 [14]: > 1020 µg/mL
MIC50 (Clostridium perfringens): 0.25 µg/mL (≈ 0.318 µM)
MIC90 (Clostridium perfringens): 0.25 µg/mL (≈ 0.318 µM)
MIC [15]: 0.25 µg/mL (≈ 0.318 µM)
MIC50 [15]: 0.25 µg/mL (≈ 0.318 µM)
MIC90 [15]: > 1020 µg/mL
MIC50 (Lactobacillus sp.): 0.5 µg/mL (≈ 0.636 µM)
MIC90 (Lactobacillus sp.): > 1020 µg/mL
MIC (Ruminococcus obeum): 0.25 µg/mL (≈ 0.318 µM)
MIC50 (Ruminococcus obeum): 0.25 µg/mL (≈ 0.318 µM)
MIC90 (Ruminococcus obeum): 4 µg/mL (≈ 5.09 µM)
